Assay results from US8546440B2, “Substituted bicyclic imidazole derivatives as gamma secretase modulators” (Janssen Pharmaceuticals, Inc., priority 2008, dated 2013).

Experiments:
Aβtotal = assay: Screening for γ-secretase-modulating activity, Method 1: Aβtotal sandwich ELISA in supernatant of SKNBE2 cells carrying APP 695 wild type (Tables 12a, 12b); assay type: cell-based
Description: (§1) Screening was carried out using SKNBE2 cells carrying the APP 695—wild type, grown in Dulbecco's Modified Eagle's Medium/Nutrient mixture F-12 (DMEM/NUT-mix F-12) (HAM) provided by Gibco (cat no. 31330-38) containing 5% Serum/Fe supplemented with 1% non-essential amino acids. Cells were grown to near confluency.
(§2) The screening was performed using the assay as described in Citron et al (1997) Nature Medicine 3: 67. Briefly, cells were plated in a 96-well plate at about 10^5 cells/ml one day prior to addition of compounds. Compounds were added to the cells in Ultraculture (Lonza, BE12-725F) supplemented with 1% glutamine (Invitrogen, 25030-024) for 18 hours. The media were assayed by two sandwich ELISAs, for Aβ42 and Aβtotal. Toxicity of the compounds was assayed by WST-1 cell proliferation reagent (Roche, 1 644 807) according to the manufacturer's protocol.
To quantify the amount of Aβtotal in the cell supernatant, samples and standards were added to a 6E10-coated plate. The plate was allowed to incubate overnight at 4° C. in order to allow formation of the antibody-amyloid complex. Following this incubation and subsequent wash steps a selective anti-Aβ-antibody conjugate (biotinylated 4G8) was added and incubated for a minimum of 1 hour in order to allow formation of the antibody-Amyloid-antibody-complex. After incubation and appropriate wash steps, a Streptavidine-Peroxidase-Conjugate was added, followed 30 minutes later by an addition of Quanta Blu fluorogenic peroxidase substrate according to the manufacturer's instructions (Pierce Corp., Rockford, Ill.).
(§3) To obtain the values reported in Table 12a, the sigmoidal dose response curves were analysed by computerised curve-fitting, with percent of inhibition plotted against compound concentration. A 4-parameter equation (model 205) in XLfit was used to determine the IC50. The top and the bottom of the curve were fixed to 100 and 0, respectively, and the hill slope was fixed to 1. The IC50 represents the concentration of a compound that is required for inhibiting a biological effect by 50% (Here, it is the concentration where Aβ peptide level is reduced by 50%).
(§4) To obtain the values reported in Table 12b, the data are calculated as percentage of the maximum amount of amyloid Beta 42 measured in the absence of the test compound. The sigmoidal dose response curves were analyzed using non-linear regression analysis with percentage of the control plotted against the log concentration of the compound. A 4-parameter equation was used to determine the IC50. The values reported in Table 12b are averaged IC50 values.

Aβ42 = assay: Screening for γ-secretase-modulating activity, Method 1: Aβ42 sandwich ELISA in supernatant of SKNBE2 cells carrying APP 695 wild type (Tables 12a, 12b); assay type: cell-based
Description: as §1, §2
To quantify the amount of Aβ42 in the cell supernatant, commercially available Enzyme-Linked-Immunosorbent-Assay (ELISA) kits were used (Innotest® β-Amyloid(1-42), Innogenetics N.V., Ghent, Belgium). The Aβ42 ELISA was performed essentially according to the manufacturer's protocol. Briefly, the standards (dilutions of synthetic Aβ1-42) were prepared in polypropylene Eppendorf with final concentrations of 8000 down to 3.9 pg/ml (1/2 dilution step). Samples, standards and blanks (100 μl) were added to the anti-Aβ42-coated plate supplied with the kit (the capture antibody selectively recognizes the C-terminal end of the antigen). The plate was allowed to incubate 3 h at 25° C. in order to allow formation of the antibody-amyloid complex. Following this incubation and subsequent wash steps a selective anti-Aβ-antibody conjugate (biotinylated 3D6) was added and incubated for a minimum of 1 hour in order to allow formation of the antibody-Amyloid-antibody-complex. After incubation and appropriate wash steps, a Streptavidine-Peroxidase-Conjugate was added, followed 30 minutes later by an addition of 3,3′,5,5′-tetramethylbenzidine (TMB)/peroxide mixture, resulting in the conversion of the substrate into a coloured product. This reaction was stopped by the addition of sulfuric acid (0.9 N) and the colour intensity was measured by means of photometry with an ELISA-reader with a 450 nm filter.
as §3, §4

[1] = Homo sapiens, Method 1, Table 12a, SKNBE2 cells carrying APP 695 wild type, compounds 18 hours, ELISA, curve top and bottom fixed to 100 and 0, hill slope 1
[2] = Homo sapiens, Table 12b, Method 1, SKNBE2 cells carrying APP 695 wild type, cell supernatant ELISA, averaged IC50 values
[3] = Homo sapiens, Table 12b, Method 1, SKNBE2 cells carrying APP 695 wild type, cell supernatant ELISA, averaged IC50 values, percentage of control vs log concentration
[4] = Method 1, Table 12a, SKNBE2 cells carrying APP 695 wild type, compounds 18 hours, ELISA, curve top and bottom fixed to 100 and 0, hill slope 1
[5] = Table 12b, Method 1, SKNBE2 cells carrying APP 695 wild type, cell supernatant ELISA, averaged IC50 values
[6] = Table 12b, Method 1, SKNBE2 cells carrying APP 695 wild type, cell supernatant ELISA, averaged IC50 values, percentage of control vs log concentration

| IC50 (Aβtotal; [1]) | IC50 (Aβtotal; [2]) | IC50 (Aβ42; [1]) | IC50 (Aβ42; [3]) | IC50 (Aβtotal; [4]) | IC50 (Aβtotal; [5]) | IC50 (Aβ42; [4]) | IC50 (Aβ42; [6]) | SMILES |
| --- | --- | --- | --- | --- | --- | --- | --- | --- |
| > 10000 nM | > 10000 nM | 239 nM | 263 nM |  |  |  |  | COc1cc(Nc2cccn3cc(-c4ccc(F)cc4)nc23)ccc1-n1cnc(C)n1 [Compound 6] |
| > 10000 nM | > 10000 nM | 384 nM | 282 nM |  |  |  |  | COc1cc(Nc2cccn3cc(C(C)(C)C)nc23)ccc1-n1cnc(C)c1 [Compound 9] |
|  |  |  |  | > 3000 nM | > 3020 nM | 39 nM | 35 nM | CCCCc1nc2c(Nc3ccc(-n4cnc(C)c4)c(OC)c3)cccn2c1CCC [Compound 11] |
| > 3000 nM | > 3020 nM | 64 nM | 55 nM |  |  |  |  | COc1cc(Nc2cccn3cc(-c4ccccc4)nc23)ccc1-n1cnc(C)c1 [Compound 12] |
| > 3000 nM | > 3020 nM | 89 nM | 87 nM |  |  |  |  | COc1cc(Nc2cccn3c(-c4ccccc4)c(-c4ccccc4)nc23)ccc1-n1cnc(C)c1 [Compound 13] |
| > 3000 nM | > 3020 nM | 57 nM | 41 nM |  |  |  |  | COc1cc(Nc2cccn3cc(-c4ccccc4Cl)nc23)ccc1-n1cnc(C)c1 [Compound 14] |
| > 3000 nM | > 3020 nM | 58 nM | 49 nM |  |  |  |  | COc1cc(Nc2cccn3cc(-c4cccc(Cl)c4)nc23)ccc1-n1cnc(C)c1 [Compound 16] |
| > 3000 nM | > 3020 nM | 80 nM | 71 nM |  |  |  |  | COc1cc(Nc2cccn3cc(-c4ccc(Cl)cc4)nc23)ccc1-n1cnc(C)c1 [Compound 17] |
| > 3000 nM | > 3020 nM | 59 nM | 56 nM |  |  |  |  | COc1cc(Nc2cccn3cc(-c4cccc(F)c4)nc23)ccc1-n1cnc(C)c1 [Compound 19] |
|  | 5750 nM |  | 871 nM |  |  |  |  | COc1cc(Nc2cccn3cc(-c4ccc(F)cc4)nc23)ccc1-n1cc(C)nc1C [Compound 20] |
| > 5000 nM | > 5010 nM | 263 nM | 204 nM |  |  |  |  | COc1cc(Nc2cccn3cc(-c4ccc(F)cc4)nc23)ccc1-n1ccnc1C [Compound 21] |
| > 3000 nM | > 3020 nM | 113 nM | 112 nM |  |  |  |  | COc1cc(Nc2cccn3c(Br)c(-c4ccc(F)cc4)nc23)ccc1-n1cnc(C)c1 [Compound 22] |
|  |  |  |  | > 3000 nM | > 3020 nM | 25 nM | 22 nM | CCc1c(-c2ccc(F)cc2)nc2c(Nc3ccc(-n4cnc(C)c4)c(OC)c3)cccn12 [Compound 23] |
| > 10000 nM | > 10000 nM | 251 nM | 240 nM |  |  |  |  | COc1cc(Nc2cccn3cc(-c4ccc(F)cc4F)nc23)ccc1-n1cnc(C)c1 [Compound 25] |
| > 1000 nM | > 3020 nM | 20 nM | 18 nM |  |  |  |  | COc1cc(Nc2cccn3cc(COc4ccc(F)cc4)nc23)ccc1-n1cnc(C)c1 [Compound 28] |
| > 3000 nM | > 3020 nM | 57 nM | 45 nM |  |  |  |  | COc1cc(Nc2cccn3cc(-c4ccc(C(F)(F)F)cc4)nc23)ccc1-n1cnc(C)c1 [Compound 30] |
| > 3000 nM | > 3020 nM | 64 nM | 60 nM |  |  |  |  | COc1ccc(-c2cn3cccc(Nc4ccc(-n5cnc(C)c5)c(OC)c4)c3n2)cc1 [Compound 36] |
| > 10000 nM | > 10000 nM | 190 nM | 174 nM |  |  |  |  | COc1ccc(-c2cn3cccc(Nc4ccc(-n5cnc(C)c5)c(OC)c4)c3n2)c(OC)c1 [Compound 37] |
| 8540 nM | 7410 nM | 344 nM | 363 nM |  |  |  |  | COc1cc(Nc2cccn3cc(-c4ccccn4)nc23)ccc1-n1cnc(C)c1 [Compound 41] |

| IC50 (Aβtotal; [1]) | IC50 (Aβtotal; [2]) | IC50 (Aβ42; [1]) | IC50 (Aβ42; [3]) | IC50 (Aβtotal; [4]) | IC50 (Aβtotal; [5]) | IC50 (Aβ42; [4]) | IC50 (Aβ42; [6]) | SMILES |
| --- | --- | --- | --- | --- | --- | --- | --- | --- |
| > 10000 nM | > 10000 nM | 430 nM | 427 nM |  |  |  |  | COc1cc(Nc2cccn3cc(-c4cccnc4)nc23)ccc1-n1cnc(C)c1 [Compound 42] |
|  | > 3020 nM |  | > 3020 nM |  |  |  |  | COc1cc(Nc2cccn3cc(-c4ccncc4)nc23)ccc1-n1cnc(C)c1 [Compound 43] |
|  | > 3020 nM |  | 617 nM |  |  |  |  | COc1cc(Nc2cccn3cc(-c4ccc5ncn(C)c5c4)nc23)ccc1-n1cnc(C)c1 [Compound 44] |
| > 5000 nM | > 5010 nM | 232 nM | 200 nM |  |  |  |  | COc1cc(Nc2cccn3cc(-c4ccc(F)cc4)nc23)ccc1-n1ncnc1C [Compound 45] |
|  |  |  |  | > 3000 nM | > 3020 nM | 52 nM | 50 nM | COc1cccc(-c2nc3c(Nc4cnc(-n5cnc(C)c5)nc4)cccn3c2C)c1 [Compound 46] |
| > 3000 nM | > 3020 nM | 31 nM | 31 nM |  |  |  |  | COc1cc(Nc2cccn3cc(-c4ccccc4C(F)(F)F)nc23)ccc1-n1cnc(C)c1 [Compound 47] |
| > 3000 nM | > 3020 nM | 60 nM | 52 nM |  |  |  |  | COc1cc(Nc2cccn3cc(-c4cccc(C(F)(F)F)c4)nc23)ccc1-n1cnc(C)c1 [Compound 48] |
| 10000 nM | > 10000 nM | 305 nM | 407 nM |  |  |  |  | COc1cc(Nc2cccn3ccnc23)ccc1-n1cnc(C)c1 [Compound 49] |
|  |  |  |  | > 3000 nM | > 3020 nM | 39 nM | 38 nM | CCCCc1cn2cccc(Nc3ccc(-n4cnc(C)c4)c(OC)c3)c2n1 [Compound 51] |
|  | > 3020 nM |  | 27 nM |  |  |  |  | COc1cc(Nc2cccn3c(Cl)c(CC4CCCCC4)nc23)ccc1-n1cnc(C)c1 [Compound 53] |
| > 3000 nM | > 3020 nM | 70 nM | 68 nM |  |  |  |  | COc1cc(Nc2cccn3cc(COC(C)C)nc23)ccc1-n1cnc(C)c1 [Compound 54] |
|  |  |  |  |  | > 3020 nM |  | 1290 nM | COc1cc(Nc2cccn3cc(CN4CCCCC4)nc23)ccc1-n1cnc(C)c1 [Compound 55] |
| > 10000 nM | > 10000 nM | 601 nM | 204 nM |  |  |  |  | COc1cc(Nc2cccn3cc(CN4CCOCC4)nc23)ccc1-n1cnc(C)c1 [Compound 56] |
| > 1000 nM | > 3020 nM | 58 nM | 51 nM |  |  |  |  | COc1cc(Nc2cccn3c(I)c(-c4ccc(F)cc4)nc23)ccc1-n1cnc(C)c1 [Compound 57] |
|  | > 3020 nM |  | < 110 nM |  |  |  |  | COc1cc(Nc2cccn3c(C#N)c(-c4ccc(F)cc4)nc23)ccc1-n1cnc(C)c1 [Compound 58] |
|  |  |  |  | > 3000 nM | > 3020 nM | 123 nM | 145 nM | CCCCCCc1cnc2c(Nc3ccc(-n4cnc(C)c4)c(OC)c3)cccn12 [Compound 59] |
|  | > 3020 nM |  | < 110 nM |  |  |  |  | COc1cc(Nc2cccn3c(-c4ccccc4-c4ccccc4)cnc23)ccc1-n1cnc(C)c1 [Compound 60] |
|  |  |  | 76 nM |  |  |  |  | COc1cccc(-c2nc3c(Nc4ccc(-n5cnc(C)c5)c(F)c4)cccn3c2C)c1 [Compound 66] |

| SMILES | IC50 (Aβtotal; [1]) | IC50 (Aβtotal; [2]) | IC50 (Aβ42; [1]) | IC50 (Aβ42; [3]) | IC50 (Aβtotal; [4]) | IC50 (Aβtotal; [5]) | IC50 (Aβ42; [4]) | IC50 (Aβ42; [6]) |
| --- | --- | --- | --- | --- | --- | --- | --- | --- |
| CCCc1c(-c2ccc(F)cc2)nc2c(Nc3ccc(-n4cnc(C)c4)c(OC)c3)cccn12 [Compound 24] |  |  |  |  | > 1000 nM | > 10000 nM | 24 nM | 20 nM |
